Earlier results on one molecule are cited in patent publication US6500456B1 (priority 1997, dated 2002).

For the series the following is noted: at 20° C., pure nitroglycerin.

In the case of `O=[N+]([O-])OCC(CO[N+](=O)[O-])O[N+](=O)[O-]` [nitroglycerin], the Vapor pressure entry is on record as “about 0.00026 mm”.
